Data published in patent publication US20190091494A1, “PEPTIDES FOR HAIR GROWTH” (Clinical Stem Cells Pty Ltd, priority 2016, published 2019).
Several values for one entry are separate records, joined by “and”; a condition that tells them apart may be missing. Identical values can stand only once. Entries after “also recorded” stand apart in the source; their conditions may differ. Where no end group is shown, it is not given here. [ ]: non-standard residue; d: D form. pGlu = O=C1CC[C@@H](C(=O)O)N1

How the values were obtained:
[1] = tested on: adult subjects with a diagnosis of AGA; assay: Further clinical trial, numbered visual analog scale (VAS) global hair assessment; type: in vivo, human; settings: for VAS after treatment: scale 0-10, one value per subject 1-18, 0.0005% spray twice daily, 4-10 months
Source text: (§1) Eighteen consecutive adult subjects were recruited, 17 males and 1 female, age range 35-90 years (mean 55.4, SD 13.3) with a diagnosis of AGA, Norwood classification 2-7, and hair loss duration range of 3-40 years (mean 15.8, SD 9.6). The trial duration for each subject ranged from 4-10 months. The test compound ZT was synthesized by standard Fmoc peptide protocols and administered in water based topical spray to the scalp. Baseline and after treatment images for hair growth were graded by two blinded assessors using two validated scales: 1. numerical visual analog scale (VAS) for global assessment 2. hair growth index (HGI) of images under higher magnification for percentage changes of vellus, intermediate and terminal hair.
(§2) Male and female adult subjects with a diagnosis of AGA were invited to participate in the study. Each subject provided written informed consent except the subject who gave verbal consent as they were unable to provide written consent due to arthritis of the hand. The study was conducted in compliance with the Declaration of Helsinki, International Conference on Harmonization Good Clinical Practice guidelines. Eighteen consecutive adult subjects were recruited (17 males and 1 […]) with an age range 35-90 years (mean 55.4, SD 13.3) with a diagnosis of AGA Norwood-Hamilton classification 2-7, and with a hair loss history ranging from 3-40 years (mean 15.8, SD 9.6). Entry time points of the volunteers occurred over 6 months with the trial completed at the same endpoint resulting in duration of treatment for subjects in the trial ranging from 4-10 months.
(§3) The product given to subjects was a 100 ml spray bottle containing 0.0005% ZT as the active test agent. Subjects were instructed to spray 1-2 ml of solution, twice daily, and rub into the scalp. The spray bottle solution was to be kept away from direct sunlight and heat. Subjects were resupplied with fresh solutions every 6-8 weeks during the trial.
(§4) Images were captured on a Samsung Galaxy Note 4 phone in high resolution (16 MB image) with flash, F 2.2 and focal length 31 mm. For assessment, baseline and after treatment images were de-identified, paired and randomly allocated with respect to left/right sides. Images were presented for analysis to assessors in Powerpoint format files on a 55 inch high resolution television screen. All images and original assessor scorecards were archived in PDF format for external reviewer confirmation.
1. Numbered visual analog scale (VAS) where the assessor gives a value between 0-10 of the image (0=total absence of hair, 10=full abundant hair) (Price, 2008).
(§5) Assessment was graded by two independent assessors in a single blind manner. Assessors underwent three training sessions over two weeks prior to the final evaluation.

[2] = tested on: adult subjects with a diagnosis of AGA; assay: Further clinical trial, safety: side effects and drug interaction; type: in vivo, human; settings: listed as ZT
Source text: as §1, §2, §3

scalp of subject #17 = assay: Fluorescence spectroscopy procedure of the scalp; type: in vivo, human; settings: subject #17 (30 year hair loss); 6 pre-existing terminal hairs under visible white LED light
Source text: To confirm this effect subject #17 (30 year hair loss) underwent a fluorescence spectroscopy procedure of the scalp. […] Supporting evidence was seen when comparing the assessor pooled responses of ‘total absent hair’ where 65% (13/20) of subjects improved.

hair follicles [3] = assay: Clinical trial using topical zinc thymulin: number of active hair follicles in a set scalp area; type: in vivo, Human
Protocol: The area near the marker affected by hair loss was photographed using a Samsung Galaxy Note 4 camera with settings F2.2, focal length 31 mm, LED flash and the number of active hair follicles in a set area were quantified.
The aqueous spray formulation prepared in Example 2 was administered topically to the scalp of the trial subjects twice daily to the hair loss region(s) of the scalp. The formulation used for subjects 1, 2 and 3 contained 0.00005% LKKTETQ peptide (molecular weight 846.48).
At 16 weeks for subject 1 and 12 weeks for subjects 2, 3 and 4, the number of active hair follicles in the set area was quantified again. Multiple set areas of hair loss were evaluated for trial subjects 1, 2 and 3. These areas are designated “a” and “b” in Table 2 and Table 3.

inactive hair follicles = assay: Inventor's observation: activation of inactive hair follicles; settings: in vivo
[4] = tested on: adult subjects with a diagnosis of AGA; assay: Further clinical trial, Hair Growth Index (HGI) of magnified images; type: in vivo, human; settings: for HGI adjusted score A (absent) after: raw % multiplied by 0; for HGI raw score % A (absent) after / HGI raw score % I (intermediate) after / HGI raw score % T (terminal) after / HGI raw score % V (vellus) after: per subject, after trial completion
Source text: as §1, §2, §3, §4
2. Hair Growth Index (HGI) that is a more in-depth scale of analysis where higher magnification of images can identify the four types of hair regrowth that are designated as absent, vellus, intermediate or terminal (Bernado, 2003). For each image these four growth stages are given percentage values that added together give a raw score total of 100%. Each percentage value for absent, vellus, intermediate, and terminal are multiplied by 0,1,2,3 respectively to yield a final adjusted score ranging from a possible minimum score of 0 (total absence of hair) to a maximum score of 300 (full terminal hair). Scores were pooled for paired t-test, and P<0.05 was established for significance.
as §5

active hair follicles = settings: topically applied to rodent skin; cited from earlier work
hair follicles [5] = settings: active hair follicles that entered catagen; US 2011/0281802; cited from earlier work
[6] = all 7 subject areas, 12-16 weeks
[7] = subject 4, 12 weeks, spray without LKKTETQ peptide

Substance: zinc thymulin: zinc complex of amidated and acetylated thymulin H3CC(O)-Pyr-Glu-Ala-Lys-Ser-Gln-Gly-Gly-Ser-Asn-NH2; tested as 0.0005% water based topical spray (Ac-[pGlu]AKSQGGSN-NH2; also: zinc complex)
- VAS hair assessment improvement ([1]; 11 subjects who completed at least 6 months of treatment, listed as ZT): significant growth
- VAS after treatment ([1]; Assessor #1): 6 (3×) and 8 (10×) and 9 (3×) and 7 (2×)
- VAS after treatment ([1]; Assessor #2): 6 (5×) and 8 (5×) and 7 (3×) and 4 and 9 (2×) and 5 (2×)
- VAS hair growth ([1]; total group (18 subjects) at the end of the trial): no significant growth
- adverse systemic effects or local side effects (redness, scalp irritation) ([2]; 18 subjects, topical 0.0005% spray, total of 3,300 treatment days): no adverse systemic effects or local side effects of redness or scalp irritation; also recorded: no redness, scalp irritation or deterioration of hair color, quality or quantity
- side effects reported in the entire study ([2]; 18 test subjects, total of 111 months (~3,300 days), attributed to a non-active constituent (citric acid buffer)): Only one side effect; also recorded: only one side effect from a non-active constituent
- drug interaction with ZT ([2]; three subjects concurrently using minoxidil (N=2) and minoxidil/finasteride (N=1)): did not report any drug interaction; also recorded: no observable drug interaction
- additional developing vellus hairs revealed by spectroscopy (scalp of subject #17): 59
- Percentage increase in active hair follicles, Average increase (hair follicles [3]; [6]): 80%
- Percentage increase in active hair follicles, Range (hair follicles [3]; [6]): 6-200%
- Number of active hair follicles after treatment per cm^2 (hair follicles [3]; subject 1 (areas a, b), 16 weeks, spray with LKKTETQ peptide): 21 per cm^2 and 24 per cm^2
- Number of active hair follicles after treatment (hair follicles [3]; subject 1 (areas a, b), 16 weeks, twice daily topical 0.0005% spray also containing 0.00005% LKKTETQ peptide): 36 and 48
- Number of active hair follicles after treatment per cm^2 (hair follicles [3]; [7]): 38 per cm^2
- Percentage increase in active hair follicles (hair follicles [3]; [7]): 135%
- Number of active hair follicles after treatment (hair follicles [3]; subject 4, 12 weeks, twice daily topical 0.0005% spray without LKKTETQ peptide): 40
- activation of inactive hair follicles (inactive hair follicles): effective
- assessor pooled responses of 'total absent hair' improved ([4]; 13/20 pooled responses): 65%
- HGI adjusted score A (absent) after ([4]; Assessor #1): 0
- HGI adjusted score A (absent) after ([4]; Assessor #2): 0
- HGI adjusted score I (intermediate) after ([4]; Assessor #2, raw % multiplied by 2, listed as ZT): 60 and 40
- average increase of intermediate type hairs ([4]; HGI assessment, at 6 months): 23%
- average increase of vellus type hairs ([4]; HGI assessment, at 6 months): 32%
- number of newly observed intermediate hairs in previous absent hair regions ([4]; HGI assessment, listed as ZT): significant increase; also recorded: highly significant increased number
- HGI raw score % A (absent) after ([4]; assessor A#1, listed as ZT): 50% (3×) and 40% (4×) and 15% and 20% (2×)
- HGI raw score % I (intermediate) after ([4]; assessor A#1, listed as ZT): 20% (2×) and 15% and 10% (2×) and 25% (5×)
- HGI raw score % T (terminal) after ([4]; assessor A#1, listed as ZT): 20% (2×) and 30% (3×) and 15% and 10% (2×) and 55% and 60%
- HGI raw score % V (vellus) after ([4]; assessor A#1, listed as ZT): 10% (3×) and 20% (2×) and 25% (3×) and 15% and 5%
- HGI raw score % A (absent) after ([4]; assessor A#2, listed as ZT): 20% and 30% (3×) and 10% (3×) and 40% (2×) and 50%
- HGI raw score % I (intermediate) after ([4]; assessor A#2, listed as ZT): 30% (6×) and 20% (4×)
- HGI raw score % T (terminal) after ([4]; assessor A#2, listed as ZT): 20% (4×) and 30% (2×) and 40% and 10% (2×) and 60%
- HGI raw score % V (vellus) after ([4]; assessor A#2, listed as ZT): 30% (3×) and 20% (3×) and 0% and 40% and 10% (2×)
- Melanogenesis ([4]; higher magnification images, several (older) subjects, listed as ZT): Melanogenesis was observed in several subjects; also recorded: clearly observed

Substance: LKKTETQ [leucine-leucine-lysine-threonine-glutamic acid-threonine-glutamine, added at 0.00005% (amidated & acetylated) to the spray of subjects 1-3]
- hair growth (active hair follicles): promotes hair growth from existing active hair follicles

Substance: pyrGlu-Ala-Lys-Ser-Gln-Gly-Gly-Ser-Asn ([pGlu]AKSQGGSN) [thymulin, nonapeptide produced by the thymus gland, CAS 63958-90-7, reference compound]
- hair shaft formation (hair follicles [5]): inhibit hair shaft formation
- activation of inactive hair follicles (inactive hair follicles): does not significantly activate inactive hair follicles
